# Assay results: patent US10864192B2, “Compositions and methods for inhibiting brain trauma-induced neurodegeneration and related conditions” (priority 2016, dated 2020)
# Several values for one entry are separate records, joined by “and”; a condition that tells them apart may be missing. Equal entries are not always repeated.
# How the values were obtained:
# clinical = assay: clinical
# From the text: FIGS. 33-34 depict two graphs from an Excel spreadsheet. FIG. 33 is a linear plot of plasma level vs time and FIG. 34 is a semi-log plot of plasma conc. vs time.
# [1] = test system: human peripheral blood mononuclear cells (PBMCs); assay: PHA-induced cytokine production in human PBMCs; assay type: cell-based; conditions: phenserine 100 nM to 10 μM, 24 hr, PHA 3 μg/mL
# From the text: The detection limit for these assays is <1 pg/mL for IL-1beta and <3 pg/mL for IL-10. The intra- and inter-assay CV was <10%. All results are expressed in picograms per milliliter.
# [2] = test system: cultured hippocampal neurons; assay: Glutamate-induced excitotoxicity in cultured neurons; assay type: cell-based, rat (Sprague Dawley); conditions: phenserine 5 μM, glutamate 50 μM, 24 hr
# Procedure: Briefly, cultured hippocampal neurons in triplicate were prepared from 18-20 day rat (Sprague Dawley) embryos and were cultured for 7 days. […] Neuronal viability was assessed 24 hr after addition of glutamate. The results are plotted as percent neuronal survival±SEM. […] Twenty-four hours later cell viability was quantified (by MTS assay—using, for example but not limited to, the CellTiter 96 Aqueous One Solution Cell Proliferation Assay kit (Promega, Madison, Wis., USA) according to the manufacturer's instructions).
# SH-SY5Y neuronal cells = assay: Phenserine plus anti-inflammatory drug, oxidative stress and trophic effects in SH-SY5Y cells (MTS assay)
# Procedure: Human SH-SY5Y neuronal cells were seeded in 96-well plates at a density of 1×10^5 cells per well and allowed to grow for 24 hr. […] […] At 18 hr thereafter a MTS assay was performed per the manufacturers protocol (Abcam, Cambridge, Mass.) to measure cell viability.
# For example, instead of aspirin (as shown in FIG. 3A), an NSAID, naproxen, was used under the same experimental conditions at concentrations in FIGS. 3B-3D.
# wild-type mice = assay: Concussive mTBI in wild-type mice, immunohistochemistry 72 hr post injury; assay type: in vivo, mouse; conditions: 72 hr post TBI
# Procedure: FIG. 18 illustrates (−)-Phenserine administration preventing mTBI-induced neurodegeneration in hippocampus and lateral cortex (72 hr post concussive TBI). […] Representative images of FJC staining in hippocampus (CA1) Magnification 60× (n=5/group; *p<0.05, **p<0.01, ***p<0.001 vs. Control (CTRL) sham by Tukey's post hoc test; ^^p<0.01 vs. mTBI alone by Tukey's post hoc test).
# Neuroinflammation was evaluated by counting activated microglial cells experessing the marker IBA1 as well as by counting microglial cells co-expressing IBA1 and immunoreactivity for the pro-inflammatory cytokine TNF-α (Anti-IBA1 antibody: Abcam; anti-TNF-α antibody: Abbiotec). As evident in FIG. 20, activated microglial (IBA1 positive (+) staining) cells—a classical marker of neuroinflammation—were elevated in wild-type mice challenged with mTBI. (−)-Phenserine post-treatment mitigated this mTBI-induced effect (FIG. 20). Likewise, mTBI challenge induced a rise in IBA1+ activated microglial cells expressing the pro-inflammatory marker TNF-α (FIG. 21), which was similarly mitigated by (−)-phenserine post-treatment.
# (§1) (−)-Phenserine mitigates losses in synaptic integrity in wild and Tg mice subjected to weight drop injury. To evaluate whether mTBI-induced elevations in markers of cell loss (FJC) and neuroinflammation (TNF-α and IBA1+) are allied with a loss of synaptic integrity (which associates with cognitive loss (Wakade et al., 2010)), post- and pre-synaptic protein markers of synaptic integrity (post-synaptic density-95 (PSD-95) and synaptophysin, respectively) were immunohistochemically stained and quantified in control (w/o head injury) and mTBI challenged mice post-treated with vehicle or (−)-phenserine. […] These declines were mitigated by post treatment with (−)-phenserine. An alike trend was evident in mTBI challenged APP/PS1 AD Tg mice, and these reductions in post- and presynaptic proteins were similarly mitigated by post-treatment with (−)-phenserine (FIG. 25)
# [3] = test system: APP/PS1 AD transgenic (Tg) male mice; assay: Concussive mTBI in APP/PS1 AD Tg mice, immunohistochemistry 72 hr post injury; assay type: in vivo, mouse; conditions: 72 hr post TBI
# From the text: To study this in a model for prevention of progression of TBI pathologies into AD with resulting neuronal cell dysfunction and death, together with neuroinflammation, we used already ongoing, aged (10 to 12 month old) APP/PS1 AD transgenic (Tg) male mice were challenged with mTBI (concussive 30 g weight drop), followed by similar (−)-phenserine or vehicle post-treatment.
# To similarly cross-validate this in the more complex model of aged (10 to 12 month old) APP/PS1 AD Tg male mice, animals were challenged with mTBI (concussive 30 g weight drop) followed by (−)-phenserine or vehicle post-treatment. […] Likewise, co-localization of proinflammatory TNF-α was elevated within IBA1+ microglia across brain regions in AD Tg APP/PS1 mice with and without mTBI, and this trend was mitigated by (−)-phenserine post treatment in mTBI challenged animals (FIG. 23).
# as §1
# [4] = 5 mg/kg BID, hippocampus and lateral cortex
smiles,measurement,setting,value
"CN1CC[C@@]2(C)c3cc(OC(=O)Nc4ccccc4)ccc3N(C)[C@@H]12 [phenserine, (−)-phenylcarbamoyleseroline]",Cmax,"clinical; human, in vivo, 15 mg",3.02 ng/mL and 8.9 nM
same,expected plasma levels,clinical; targeted 30 mg/d or 60 mg/d in sustained release formulation,1.58 to 0.53 ng/ml
same,PHA-induced anti-inflammatory IL-10 levels,[1],without impacting
same,PHA-induced elevation in pro-inflammatory IL-1β levels,[1],substantially mitigated
same,cell viability (percent neuronal survival),[2],73.5 % of control levels
same,oxidative stress-induced cellular death (cell viability),"SH-SY5Y neuronal cells; ASA 10^−5 M, (−)-Phen 10^−7 M, 10^−6 M, H2O2 50 μM, 18 hr",no activity
same,loss in cell viability following oxidative stress,"SH-SY5Y neuronal cells; H2O2 300 μM, phenserine 100 nM, naproxen 10 to 1000 nM",does not statistically mitigate
same,neurotrophic effect (cell survival),"SH-SY5Y neuronal cells; phenserine 10 nM, naproxen 100 nM",no neurotrophic action
same,mTBI-induced neurodegeneration (Fluoro-Jade C+ cells),wild-type mice; [4],fully counteracted
same,mTBI-induced reductions in synaptophysin and PSD-95,wild-type mice,mitigated
same,mTBI-induced activation of microglia (IBA1+ cells),wild-type mice; hippocampus and lateral cortex,mitigated
same,mTBI-induced elevations in TNF-α within microglia (co-localized TNF-α and IBA1+ cells),wild-type mice; hippocampus and lateral cortex,mitigated
same,mTBI-induced activation of microglia (IBA1+ cells),[3]; [4],mitigated
same,mTBI-induced neurodegeneration (Fluoro-Jade C+ cells),[3]; [4],counteracted
same,mTBI-induced reductions in synaptophysin and PSD-95,[3],mitigated
same,mTBI-induced elevations in TNF-α within microglia (co-localized TNF-α and IBA1+ cells),[3]; hippocampus and lateral cortex,mitigated
